Laboratory results reported in paper PMC9917560, “Design, Synthesis and Antimicrobial Evaluation of New N-(1-Hydroxy-1,3-dihydrobenzo[c][1,2]oxaborol-6-yl)(hetero)aryl-2-carboxamides as Potential Inhibitors of Mycobacterial Leucyl-tRNA Synthetase” (International Journal of Molecular Sciences, 2023).
Like-named read-outs stand apart in the source and are kept apart here.

Experiments:
[1] = tested on: Mycobacterium tuberculosis H37Ra ITM-M006710 (ATCC 9431); assay: Antimycobacterial microdilution (resazurin) vs Mtb H37Ra; type: cell-based; settings: Middlebrook 7H9, resazurin, recalculated from µg/mL, read-out: MIC Mtb H37Ra
[2] = tested on: Mycobacterium tuberculosis H37Rv CNCTC My 331/88 (ATCC 27294); assay: Microplate Alamar Blue assay vs Mtb H37Rv; type: cell-based; settings: Mycobacterium tuberculosis, pH 6.6, MABA, Middlebrook 7H9 pH 6.6, recalculated from µg/mL; read-out: MIC Mtb H37Rv
[3] = tested on: Mycobacterium kansasii DSM 44,162 (ATCC 12478); assay: Antimycobacterial microdilution (resazurin) vs M. kansasii; type: cell-based; settings: read-out: MIC M. kansasii
[4] = tested on: Mycobacterium avium DSM 44,156 (ATCC 25291); assay: Antimycobacterial microdilution (resazurin) vs M. avium; type: cell-based; settings: Mycobacterium avium, Middlebrook 7H9, resazurin; read-out: MIC M. avium
[5] = tested on: Mycolicibacterium aurum DSM 43,999 (ATCC 23366); assay: Antimycobacterial microdilution (resazurin) vs M. aurum; type: cell-based; settings: Middlebrook 7H9, resazurin, read-out: MIC M. aurum
[6] = tested on: Mycolicibacterium smegmatis DSM 43,465 (ATCC 607); assay: Antimycobacterial microdilution (resazurin) vs M. smegmatis; type: cell-based; settings: Middlebrook 7H9, resazurin, read-out: MIC M. smeg.
[7] = tested on: Staphylococcus aureus subsp. aureus CCM 4223 (ATCC 29213); assay: Antibacterial microdilution broth (EUCAST); type: cell-based; settings: read-out: MIC Staphylococcus aureus subsp. aureus
[8] = tested on: methicillin-resistant Staphylococcus aureus subsp. aureus (MRSA) CCM 4750 (ATCC 43300); assay: microbe, parasite or virus in culture; type: cell-based; settings: read-out: MIC Methicillin-resistant Staphylococcus aureus subsp. aureus
[9] = tested on: Staphylococcus epidermidis CCM 4418 (ATCC 12228); assay: Antibacterial microdilution broth (EUCAST); type: cell-based; settings: read-out: MIC Staphylococcus epidermidis
[10] = tested on: Enterococcus faecalis CCM 4224 (ATCC 29212); assay: Antibacterial microdilution broth (EUCAST); type: cell-based; settings: read-out: MIC Enterococcus faecalis
[11] = tested on: Escherichia coli CCM 3954 (ATCC 25922); assay: Antibacterial microdilution broth (EUCAST); type: cell-based; settings: Escherichia coli, read-out: MIC Escherichia coli
[12] = tested on: Klebsiella pneumoniae CCM 4415 (ATCC 10031); assay: Antibacterial microdilution broth (EUCAST); type: cell-based; settings: Klebsiella pneumoniae, read-out: MIC Klebsiella pneumoniae
[13] = tested on: Acinetobacter baumannii DSM 30007 (ATCC 19606); assay: Antibacterial microdilution broth (EUCAST); type: cell-based; settings: read-out: MIC Acinetobacter baumannii
[14] = tested on: Pseudomonas aeruginosa CCM 3955 (ATCC 27853); assay: Antibacterial microdilution broth (EUCAST); type: cell-based; settings: read-out: MIC Pseudomonas aeruginosa
[15] = tested on: Candida albicans CCM 8320 (ATCC 24433); assay: Antifungal microdilution broth (EUCAST); type: cell-based; settings: Candida albicans, read-out: MIC Candida albicans
[16] = tested on: Candida krusei CCM 8271 (ATCC 6258); assay: Antifungal microdilution broth (EUCAST); type: cell-based; settings: Pichia kudriavzevii, read-out: MIC Candida krusei
[17] = tested on: Candida parapsilosis CCM 8260 (ATCC 22019); assay: Antifungal microdilution broth (EUCAST); type: cell-based; settings: Lodderomyces parapsilosis, read-out: MIC Candida parapsilosis
[18] = tested on: Candida tropicalis CCM 8264 (ATCC 750); assay: Antifungal microdilution broth (EUCAST); type: cell-based; settings: read-out: MIC Candida tropicalis
[19] = tested on: Aspergillus fumigatus ATCC 204305; assay: Antifungal microdilution broth (EUCAST); type: cell-based; settings: Aspergillus fumigatus, read-out: MIC Aspergillus fumigatus
[20] = tested on: Aspergillus flavus CCM 8363; assay: Antifungal microdilution broth (EUCAST); type: cell-based; settings: Aspergillus flavus, read-out: MIC Aspergillus flavus
[21] = tested on: Lichtheimia corymbifera CCM 8077; assay: Antifungal microdilution broth (EUCAST); type: cell-based; settings: Lichtheimia corymbifera, read-out: MIC Lichtheimia corymbifera
[22] = tested on: Trichophyton interdigitale CCM 8377 (ATCC 9533); assay: Antifungal microdilution broth (EUCAST); type: cell-based; settings: Trichophyton interdigitale, read-out: MIC Trichophyton interdigitale
HepG2 cell line = assay: Cytotoxicity screening, CellTiter 96 assay; settings: for IC50: Homo sapiens, HepG2, 24 h, read-out: IC50 HepG2; for toxicity to HepG2 up to highest tested concentration: tested up to 500 µM (2, 3), 250 µM (12, 17), 100 µM (6, 7, 11) because of solubility

O=C(Nc1ccc2c(c1)B(O)OC2)c1ccc(C(F)(F)F)cn1 [Compound 11, N-(1-hydroxy-1,3-dihydrobenzo[c][1,2]oxaborol-6-yl)-5-(trifluoromethyl)picolinamide]
> 100 µM: IC50 (HepG2 cell line)
12.1 µM: MIC ([3]; Middlebrook 7H9, resazurin)
> 125 µM: MIC ([7]; 24 h) | MIC ([7]; 48 h) | MIC ([8]; 24 h) | MIC ([8]; 48 h) | MIC ([9]; 24 h) | MIC ([9]; 48 h) | MIC ([10]; 24 h) | MIC ([10]; 48 h) | MIC ([11]; 24 h) | MIC ([11]; 48 h) | MIC ([12]; 24 h) | MIC ([12]; 48 h) | MIC ([13]; 24 h) | MIC ([13]; 48 h) | MIC ([14]; 24 h) | MIC ([14]; 48 h) | MIC ([15]; 24 h) | MIC ([15]; 48 h) | MIC ([16]; 24 h) | MIC ([16]; 48 h) | MIC ([17]; 24 h) | MIC ([17]; 48 h) | MIC ([18]; 24 h) | MIC ([18]; 48 h) | MIC ([19]; ATCC204305, 24 h) | MIC ([19]; ATCC204305, 48 h) | MIC ([20]; CCM8363, 24 h) | MIC ([20]; CCM8363, 48 h) | MIC ([21]; CCM8077, 24 h) | MIC ([21]; CCM8077, 48 h) | MIC ([22]; 72 h) | MIC ([22]; 120 h)
97 µM: MIC [1] | MIC [4]
non-toxic: toxicity to HepG2 up to highest tested concentration (HepG2 cell line)
9.72 µM: MIC [2]
188.1 to 188.9 °C: melting point
24.2 µM: MIC [5] | MIC [6]

Cc1cnc(C(=O)Nc2ccc3c(c2)B(O)OC3)cn1 [Compound 2, N-(1-hydroxy-1,3-dihydrobenzo[c][1,2]oxaborol-6-yl)-5-methylpyrazine-2-carboxamide]
non-toxic: toxicity to HepG2 up to highest tested concentration (HepG2 cell line)
215 to 216.1 °C: melting point
> 500 µM: MIC ([8]; 24 h) | MIC ([8]; 48 h) | MIC ([10]; 24h incubation) | MIC ([10]; 48h incubation) | MIC ([11]; 24h incubation) | MIC ([11]; 48h incubation) | MIC ([12]; 24h incubation) | MIC ([12]; 48h incubation) | MIC ([13]; 24h incubation) | MIC ([13]; 48h incubation) | MIC ([14]; 24h incubation) | MIC ([14]; 48h incubation) | MIC ([15]; 24h incubation) | MIC ([15]; 48h incubation) | MIC ([16]; 24h incubation) | MIC ([16]; 48h incubation) | MIC ([17]; 24h incubation) | MIC ([17]; 48h incubation) | MIC ([18]; 24h incubation) | MIC ([18]; 48h incubation) | MIC ([19]; ATCC204305, 24h incubation) | MIC ([19]; ATCC204305, 48h incubation) | MIC ([20]; CCM8363, 24h incubation) | MIC ([20]; CCM8363, 48h incubation) | MIC ([21]; CCM8077, 24h incubation) | MIC ([21]; CCM8077, 48h incubation) | MIC ([22]; 72h incubation) | MIC ([22]; 120h incubation) | IC50 (HepG2 cell line)
250 µM: MIC ([7]; 24h incubation) | MIC ([7]; 48h incubation)
58.1 µM: MIC [1] | MIC [3] | MIC [4]
14.5 µM: MIC [5]
46.5 µM: MIC [2]
500 µM: MIC ([9]; 24h incubation) | MIC ([9]; 48h incubation)
29 µM: MIC [6]
